US5912230A, “Anti-fungal and anti-bacterial histatin-based peptides” (priority 1998, dated 1999)
Where no end group is shown, it is not given here.

Assays:
[1] = system: C. albicans blastoconidia; conditions: blastoconidia, 1 h at 37° C., pH 7.4
From the text: C. albicans is a dimorphic yeast. It can exist in a yeast or blastoconidial form, which upon germination develops into the hyphal or germinated form. While the germinated form is considered to be more invasive, most of the C. albicans isolates harvested from the oral cavities of healthy individuals appear to be in the blastoconidial form. (Arendorf, T. M. et al. (1980), Arch. Oral Biol. 25:1-10; Gow, N.A.R. et al. (1987), Criti. Rev. Microbiol. 15:73-78; Odds, F. C. (1988), Candida and Candidosis, 2nd ed., Bailliere Tindall, London, England). Anti-fungal activity of synthetic histatin 5, histatin-based peptide 113, peptides based on portions of the amino acid sequences of histatin-based peptide 113 and peptides derived from histatin-based peptide 113 with specified amino acid substitutions was measured in assays designed to test the effectiveness of the peptides against the blastoconidia form of Candida (Table 1). These assays, which measure killing of blastoconidia of C. albicans, are described in Xu et al., which is herein incorporated by reference. (Xu, T. et al. (1991), Infect. Immun. 59(8):2549-2554).
A well-described strain of C. albicans was used in the bioassay. This strain, ATCC 44505, was originally isolated from the human oral cavity. Cultures were stored at 4° C. on Sabouraud dextrose agar plates (Difco Laboratories, Detroit, Mich.) until use. Stationary phase growth cells were obtained following growth at 30° C. for 18 h on Sabouraud dextrose agar plates. Colonies were harvested and suspended in 10 mM potassium phosphate buffer (PPB), pH 7.4.
To initiate log phase growth, an aliquot of stock C. albicans was suspended in Sabouraud dextrose broth (Difco) and incubated at 30° C. in a shaking water bath. The growth phase was determined by taking aliquots of the culture at one hour intervals to monitor the optical density (O.D.) at 560 nm. […] Log phase cells were harvested and utilized in the blastoconidia killing assay in a manner identical to that described for stationary phase cells. A final concentration of 10^5 cells/ml (either stationary or log phase fungus) was used in all assays.
The standard suspension buffer utilized in the blastospore killing assay was 0.01M PPB, pH 7.4. An alternate suspension buffer, N-2-hydroxyethylpiperazine-N'-2-ethanesulfonic acids (HEPES; Sigma Chemical Co., St. Louis, Mo.), pH 7.4, can also be utilized.
a. For the killing of blastoconidia assay, 50 μl aliquots of cells (2×10^5 cells/ml) diluted in suspension buffer were allowed to attach to a polystyrene 96-well micro-titer plate (COSTAR, Cambridge, Mass.) for 15 min at room temperature, and then incubated with an equal volume of a histatin or histatin peptide in suspension buffer for 1 h at 37° C. Controls were carried out in the absence of the histatin or histatin peptide. After incubation, wells were washed three times by centrifugation at 1,000 xg for 5 min and covered with aliquots of molten Sabouraud dextrose broth (Difco) containing 2% agarose (Sigma) at 45° C. The plate was then incubated at 30° C. for 8 h. Under such conditions, live cells will divide and begin to form colonies, while dead cells will remain as single cells. To determine the percentage of blastoconidia killed, a total of 100 single cells and/or colonies were counted under a Nikon inverted microscope at 400× magnification and the extent of killing was calculated using the formula: [1-(number of colonies in treated sample)/(number of colonies in control)]×100%.
Data were obtained by calculating the mean and standard deviation from triplicate assays.

[2] = system: Porphyromonas gingivalis strain A7A1-28; assay: microdilution bacteriostatic assay (P. gingivalis growth inhibition); type: cell-based
Procedure: (a) The bacteria used in one investigation, Porphyromonas gingivalis strain A7A1-28, is a typical key pathogenic organism associated with destructive periodontal diseases. The bacteria were multiply subcultured in Enriched Todd Hewitt broth (ETHB, Difco Lab., Detroit, Mich.). Microorganisms were stored in the same broths containing 20% and 50% glycerol, at -20° C. and -70° C., respectively. These served as stock cultures from which all preparations originated.
Working stock cultures were maintained by weekly transfer to Brain Heart Infusion Anaerobic Sheep Blood Agar plates (BHIA, Becton Dickinson and Co., Cockeysville, Md.), and Trypticase Soy Anaerobic Sheep Blood Agar plates (TSA, Becton Dickinson and Co., Cockeysville, Md.). Plates were incubated for 3 to 4 days under strictly anaerobic conditions. For the bacteriostatic assay, bacteria were collected from plates, inoculated into the aforementioned broth and grown at 37° C., under strictly anaerobic conditions for 24 to 48 hours.
A modification of the typical microdilution assay (Rotilie et al., 1975) for the determination of minimal inhibitory concentration (MIC) of antimicrobial agents was utilized to investigate the bacteriostatic activity of the peptides. A standardized bacterial inoculum (P. gingivalis) was exposed to serially diluted antimicrobial peptides in an enriched broth medium that was suitable for the growth of anaerobic bacteria. The test was adapted for use in the 96-well microtiter plates. […] The modification introduced here was based on the spectrophotometric reading of the microtiter plate after incubation.
Microorganisms from cultures maintained in the aforementioned plates were inoculated into 5 ml of the above-mentioned broths and cultured overnight at 37° C. under strictly anaerobic conditions with continuous agitation on a minishaker (IKA-Labortechnik, Staufen i. Br., Germany). The bacteria were grown until reaching the late log phase and were then suspended in the same broths to an optical density (O.D.) of 0.1 at 560 nm. The peptides were diluted in 0.01M phosphate buffered saline (PBS), pH 7. Forty μl aliquots of peptide dilutions were added in each well of a U-bottom microtiter plate (Costar, Cambridge, Mass.) to give final concentrations of 2000, 1000, 500 and 250 μM. Twenty μl of bacterial inoculum was added to all the wells. Finally, 100 μl of the suitable broth were added to each well. The optical density of the wells of the microtiter plate was determined using a microplate reader set at 550 nm and the plate was then incubated under strictly anaerobic conditions for 24 hours. Controls were made by replacing the peptide dilutions with PBS alone. After the incubation, the mixtures in each well were mixed manually to resuspend sedimented bacteria and the plate was read again. The experiments were conducted twice every time. The biologic activity was calculated according to the formula:
100-[[(Fin ODexp-In ODexp)/(Fin ODctr-In ODctr)]×100]
In addition, the % increase in time to reach midlog phase growth was calculated.
The data presentation represent the means (±SEM) of at least 2 separate experiments.

[3] = system: P. gingivalis hemagglutination of erythrocytes; assay: histatin peptide inhibition of hemagglutination assay; type: cell-based, Porphyromonas gingivalis; conditions: 2 hours at room temperature, visual examination
Procedure: The P. gingivalis strain of Section C.(1) was also used for the hemagglutination assays. The bacterial growth and culture conditions were also the same as those described in Section C.(1).
A classic assay was utilized to determine the hemagglutination potential of the P. gingivalis strain. Microorganisms were inoculated into BFB broth and cultured overnight, for approximately 24 hours at 37° C. under strictly anaerobic conditions with continuous agitation on a minishaker (IKA-Labortechnik, Staufen i. Br., Germany). The bacteria were harvested by centrifugatin at 3,000 r.p.m. for 20 min, at 4° C., washed twice in 0.01M phosphate buffered saline (PBS), pH 7.4, and suspended in the same buffer to an optical density of 1.0 at 550 nm. […] One ml of blood was drawn each time, washed twice in PBS at 1,000 r.p.m. for 10 min at 4° C. and suspended in the same buffer at a 2% (v/v) final concentration. Fifty μl of the bacterial suspension were serially diluted in PBS (two-fold steps) in a 96-well U-bottom microplate (Costar, Cambridge, Mass.). Fifty μl of the erythrocyte suspension were added to each well. Controls without bacteria or erythrocytes were included. The microplate was slightly shaken and incubated at room temperature for 2 hours. Visible examination on a white background was used to determine hemagglutination. The amount of hemagglutination was rated as none,(-), moderate (+/-), or strong (+). Erythrocytes in control wells with PBS precipitated to the center of the well, whereas erythrocyte-bacteria aggregates precipitated at the periphery of the bottom. The hemagglutination titer was expressed as the reciprocal of the highest dilution of the bacterial suspension providing visible hemagglutination.
Preparation of erythrocyte and bacterial suspensions were the same as for the hemagglutination assay. Fifty μl of histatin peptide solutions were diluted in PBS in a U-bottom microplate, at various two-fold concentrations with 600 nmole/ml being the highest. The bacterial concentration utilized was normally twice the minimal concentration which gave strong hemagglutination. Equal volumes of the bacterial suspension were poured into the wells containing the histatin peptides. Finally, 50 μl of erythrocyte suspension were added in each well. The microplate was slightly shaken and incubated at room temperature for 2 hours. Controls were made by replacement of the peptide dilutions with PBS only. The experiments were conducted at least twice. The lowest histatin peptide concentration without hemagglutination (complete inhibition) was determined upon visual examination. The highest final histatin peptide concentration utilized was 100 nmole/ml.

[4] = target: T1, Clostripain (Hathewaya histolytica, UniProt P09870); assay: clostripain assay (BAPNA hydrolysis); type: biochemical, Clostridium histolyticum; conditions: read-out: Clostripain: IC50 (μM) for inhibition of Clostripain
T1 construct: purchased Sigma Chemical Corp., St. Louis, Mo
Procedure: Clostripain from Clostridium histolyticum (Sigma Chemical Corp., St. Louis, Mo.) was dissolved in deionized water to a concentration of 1 mg/mL (300 units/mg) and activated with the addition of 10 mmol/L DTT. To measure its hydrolytic activity, clostripain (6 units) was added to […] Hepes buffer, pH 7.5, containing 80 gmol/L BAPNA (benzoyl-arginine-p-nitroanilide), together with 5.6 μmol/L of histatin peptide inhibitor. As controls, assays were performed in the absence of any histatin peptide inhibitor. The activity was monitored continuously at 405 nm using a Molecular Devices VMax microtitre plate reader. The activities were determined from the maximum rates of substrate hydrolysis. Assays were done in duplicate, and the means normalized to the controls.

T1 sequence (P09870 191-526): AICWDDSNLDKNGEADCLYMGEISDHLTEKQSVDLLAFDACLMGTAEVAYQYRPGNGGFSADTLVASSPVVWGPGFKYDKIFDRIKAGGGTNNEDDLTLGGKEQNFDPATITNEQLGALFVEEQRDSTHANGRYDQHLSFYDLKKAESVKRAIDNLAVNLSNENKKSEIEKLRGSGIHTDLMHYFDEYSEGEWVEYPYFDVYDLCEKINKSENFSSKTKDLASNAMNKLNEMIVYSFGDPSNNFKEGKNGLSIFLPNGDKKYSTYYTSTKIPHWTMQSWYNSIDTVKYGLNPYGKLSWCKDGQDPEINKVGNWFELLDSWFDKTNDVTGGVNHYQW
T1 sequence (P09870 51-181): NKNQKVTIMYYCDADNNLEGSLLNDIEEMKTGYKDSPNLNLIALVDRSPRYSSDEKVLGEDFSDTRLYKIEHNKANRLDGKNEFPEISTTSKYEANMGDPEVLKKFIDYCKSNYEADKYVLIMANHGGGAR

KRHHGYKRKFHEKHH [peptide 105]
C. albicans: LD50 (μM) for % killing [1]: 5.0 µM
P. gingivalis: % inhibition at 500 μM dose (scoring) ([2]; 500 μM dose, highest response seen used in the scoring): +++ (+++50-80%)
Hemagglutination: lowest dose (μM) at which hemagglutination was observed using P. Gingivalis [3]: 6.25 µM

KRHHGYKRKFHEKHHSHRGYR [peptide 101]
C. albicans: LD50 (μM) for % killing [1]: 3.5 µM
Hemagglutination: lowest dose (μM) at which hemagglutination was observed using P. Gingivalis [3]: 1.56 µM

KRHHGYKRKFHEKHHSHR [peptide 103]
C. albicans: LD50 (μM) for % killing [1]: 4.5 µM
P. gingivalis: % increase in time to reach mid logphase growth (0.2 OD) ([2]; 2 mM dose): 56.6%
Hemagglutination: lowest dose (μM) at which hemagglutination was observed using P. Gingivalis [3]: 1.56 µM

C[C@H](NC(=O)[C@H](Cc1c[nH]cn1)NC(=O)[C@H](CO)NC(=O)[C@@H](N)CC(=O)O)C(=O)N[C@@H](CCCCN)C(=O)N[C@@H](CCCNC(=N)N)C(=O)N[C@@H](Cc1c[nH]cn1)C(=O)N[C@@H](Cc1c[nH]cn1)C(=O)NCC(=O)N[C@@H](Cc1ccc(O)cc1)C(=O)N[C@@H](CCCCN)C(=O)N[C@@H](CCCNC(=N)N)C(=O)N[C@@H](CCCCN)C(=O)N[C@@H](Cc1ccccc1)C(=O)N[C@@H](Cc1c[nH]cn1)C(=O)N[C@@H](CCC(=O)O)C(=O)N[C@@H](CCCCN)C(=O)N[C@@H](Cc1c[nH]cn1)C(=O)N[C@@H](Cc1c[nH]cn1)C(=O)N[C@@H](CO)C(=O)N[C@@H](Cc1c[nH]cn1)C(=O)N[C@@H](CCCNC(=N)N)C(=O)NCC(=O)N[C@@H](Cc1ccc(O)cc1)C(=O)O [SynHis5, reference compound]
C. albicans: LD50 (μM) for % killing [1]: 3.0 µM
IC50 [4]: < 6.2 µM
